Experimental data: US7696218B2, “Substituted 1,3-dialkyl-2,4-dioxo-6-(arylamino)-1,2,3,4-tetrahydropyrimidine-5-hydroxamic acid inhibitors of MAPK/ERK kinase” (Takeda San Diego, Inc., priority 2006, dated 2010)

target: T1, MEK2 (Homo sapiens, UniProt P36507, S222E/S226D); assay: MEK2 inhibition assay, fluorescence polarization with IMAP beads (ERK1 / FI-Erktide substrate); format: biochemical; settings: 4 nM MEK2, 25 nM ERK1, 400 μM ATP, 500 nM FI-Erktide, 1% DMSO, 22 min at room temperature; values given as ranges; read-out: IC50 of Exemplified Compounds Against MEK2
T1 construct: 6-histidine tag (N); made in house; host or cells: Spodoptera frugiperda Sf9 (baculovirus) for MEK2; E. coli for ERK1
Source text: For MEK2, DNA encoding residues 1-400 (S222E/S226D) of the full-length sequence of the human enzyme may be amplified by PCR and cloned into pFastbac (Invitrogen), which incorporates a 6-histidine tag at the N-terminus. The two mutations, S222E and S226D, may be obtained by quick change PCR. SEQ ID NO: 3 corresponds to residues 1-400 with mutations S222E/S226D, and with the N-terminal 6-histidine tag and SEQ ID NO: 4 is the DNA sequence that was used to encode SEQ ID NO: 3.
Recombinant baculovirus incorporating the MEK1 and MEK2 constructs may be generated by transposition using the Bac-to-Bac system (Invitrogen). High-titer viral stocks may be generated by infection of Spodoptera frugiperda Sf9 cells; the expression of recombinant protein may be carried out by infection of Spodoptera frugiperda Sf9 (Invitrogen) in 5L Wave Bioreactors (Wave Biotech).
Recombinant protein may be isolated from cellular extracts by passage over ProBond resin (Invitrogen). Partially purified extracts of all MEK1 may then be further purified by high pressure liquid chromatography over a SEC2000 gel filtration resin. The purity of MEK1 and MEK2 proteins may be determined on denaturing SDS-PAGE gel. Purified MEK1 and MEK2 may then be concentrated to a final concentration of 3.4 mg/ml and 5.4 mg/ml, respectively. The proteins may be either stored at −78° C. in a buffer containing 50 mM TRIS-HCl pH 7.6, 250 mM NaCl, 0.1 mM EDTA and 0.125 mM TCEP or at −20° C. in the presence of glycerol (final concentration of glycerol at 50%).
The inhibitory properties of compounds relative to MEK1 or MEK2 may be determined using a black 384-well-plate format under the following reaction conditions: 50 mM HEPES pH 7.3, 10 mM NaCl, 10 mM MgCl2, 0.01% Brij35, 1 nM MEK1 or 4 nM MEK2, 25 nM ERK1, 400 μM ATP, 500 nM IPTTPITTYFFFK-5FAM-COOH (FI-Erktide), and 1% DMSO. Reaction product is determined quantitatively by fluorescent polarization using progressive IMAP beads from Molecular Devices.
The assay reaction may be initiated as follows: 2 μl of the mixture of 1.5 μM FI-Erktide and 75 nM ERK with 2 μl of inhibitor (2 fold serial dilutions for 11 data points for each inhibitor) containing 3% DMSO were added to each well of the plate, followed by the addition of 2 μl of the mixture of 3 nM MEK1 or 12 nM MEK2 and 1200 μM ATP to initiate the reaction (final enzyme concentration was 1 nM for MEK1 or 4 nM for MEK2). The reaction mixture may then be incubated at room temperature for 22 min, and quenched and developed by addition of 20 μl of 1:200 dilution of progressive IMAP beads (Molecular Devices) in 80% buffer A, 20% bufferB and 0.003% Tween 20. Fluorescence polarization of the resulting reaction mixtures may be measured after a 1 hour incubation at room temperature.
IC50 values may be calculated by non-linear curve fitting of the compound concentrations and fluorescence polarization signal to the standard IC50 equation.

T1 sequence (P36507 with tags, fused parts or gaps S222E/S226D): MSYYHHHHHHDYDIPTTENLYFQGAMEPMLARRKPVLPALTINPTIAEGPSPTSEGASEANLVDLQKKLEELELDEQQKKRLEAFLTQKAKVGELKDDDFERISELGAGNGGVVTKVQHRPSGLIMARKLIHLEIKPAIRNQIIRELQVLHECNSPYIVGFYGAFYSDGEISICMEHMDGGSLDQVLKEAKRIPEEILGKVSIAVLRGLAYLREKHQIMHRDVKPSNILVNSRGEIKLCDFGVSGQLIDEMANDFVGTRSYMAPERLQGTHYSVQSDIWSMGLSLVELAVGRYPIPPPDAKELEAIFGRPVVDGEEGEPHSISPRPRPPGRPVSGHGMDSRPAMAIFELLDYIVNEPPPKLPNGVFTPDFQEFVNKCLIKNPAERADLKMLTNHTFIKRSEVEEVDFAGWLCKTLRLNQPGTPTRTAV

IC50 [µM] | Structure (SMILES)
≤ 0.5 | Cn1c(Nc2ccc(I)cc2F)c(C(=O)NOCCO)c(=O)n(C)c1=O [Example 3, 6-(2-fluoro-4-iodophenylamino)-N-(2-hydroxyethoxy)-1,3-dimethyl-2,4-dioxo-1,2,3,4-tetrahydropyrimidine-5-carboxamide]
0.501 to 2.5 | Cn1c(Nc2ccc(I)cc2F)c(C(=O)NOCC2CC2)c(=O)n(C)c1=O [Example 4, N-(cyclopropylmethoxy)-6-(2-fluoro-4-iodophenylamino)-1,3-dimethyl-2,4-dioxo-1,2,3,4-tetrahydropyrimidine-5-carboxamide]
0.501 to 2.5 | CONC(=O)c1c(Nc2ccc(I)cc2F)n(C)c(=O)n(C)c1=O [Example 5, 6-(2-Fluoro-4-iodophenylamino)-N-methoxy-1,3-dimethyl-2,4-dioxo-1,2,3,4-tetrahydropyrimidine-5-carboxamide]
≤ 0.5 | Cn1c(Nc2ccc(I)cc2F)c(C(=O)NO)c(=O)n(C)c1=O [Example 6, 6-(2-Fluoro-4-iodophenylamino)-N-hydroxy-1,3-dimethyl-2,4-dioxo-1,2,3,4-tetrahydropyrimidine-5-carboxamide]
≤ 0.5 | Cn1c(Nc2ccc(I)cc2F)c(C(=O)NN)c(=O)n(C)c1=O [Example 9, 6-(2-Fluoro-4-iodophenylamino)-1,3-dimethyl-2,4-dioxo-1,2,3,4-tetrahydropyrimidine-5-carbohydrazide]
0.501 to 2.5 | CC(=O)c1c(Nc2ccc(I)cc2F)n(C)c(=O)n(C)c1=O [Example 10, 5-Acetyl-6-(2-fluoro-4-iodophenylamino)-1,3-dimethylpyrimidine-2,4(1H,3H)-dione]
2.5 to 25 | Cn1c(Nc2ccc(I)cc2F)c(C(=O)c2ccco2)c(=O)n(C)c1=O [Example 11, 6-(2-Fluoro-4-iodophenylamino)-5-(furan-2-carbonyl)-1,3-dimethylpyrimidine-2,4(1H,3H)-dione]
2.5 to 25 | COCC(=O)c1c(Nc2ccc(I)cc2F)n(C)c(=O)n(C)c1=O [Example 12, 6-(2-Fluoro-4-iodophenylamino)-5-(2-methoxyacetyl)-1,3-dimethylpyrimidine-2,4(1H,3H)-dione]
2.5 to 25 | COCCOCC(=O)c1c(Nc2ccc(I)cc2F)n(C)c(=O)n(C)c1=O [Example 13, 6-(2-Fluoro-4-iodophenylamino)-5-(2-(2-methoxyethoxy)acetyl)-1,3-dimethylpyrimidine-2,4(1H,3H)-dione]
> 25 | CC(=O)OCC(=O)c1c(Nc2ccc(I)cc2F)n(C)c(=O)n(C)c1=O [Example 14, 2-(6-(2-Fluoro-4-iodophenylamino)-1,3-dimethyl-2,4-dioxo-1,2,3,4-tetrahydropyrimidin-5-yl)-2-oxoethyl acetate]
0.501 to 2.5 | Cn1c(Nc2ccc(I)cc2F)c(C(=O)CO)c(=O)n(C)c1=O [Example 15, 6-(2-Fluoro-4-iodophenylamino)-5-(2-hydroxyacetyl)-1,3-dimethylpyrimidine-2,4(1H,3H)-dione]
≤ 0.5 | Cn1c(Nc2ccc(I)cc2F)c(C(N)=O)c(=O)n(C)c1=O [Example 16, 6-(2-Fluoro-4-iodophenylamino)-1,3-dimethyl-2,4-dioxo-1,2,3,4-tetrahydropyrimidine-5-carboxamide]
0.501 to 2.5 | Cc1cc(I)ccc1Nc1c(C(N)=O)c(=O)n(C)c(=O)n1C [Example 17, 6-(4-Iodo-2-methylphenylamino)-1,3-dimethyl-2,4-dioxo-1,2,3,4-tetrahydropyrimidine-5-carboxamide]
2.5 to 25 | Cn1c(Nc2ccc(Br)cc2Cl)c(C(N)=O)c(=O)n(C)c1=O [Example 18, 6-(4-Bromo-2-chlorophenylamino)-1,3-dimethyl-2,4-dioxo-1,2,3,4-tetrahydropyrimidine-5-carboxamide]
2.5 to 25 | Cn1c(Nc2ccc(Br)cc2F)c(C(N)=O)c(=O)n(C)c1=O [Example 19, 6-(4-Bromo-2-fluorophenylamino)-1,3-dimethyl-2,4-dioxo-1,2,3,4-tetrahydropyrimidine-5-carboxamide]
> 25 | CCOC(=O)c1c(Nc2ccc(Br)cc2Cl)n(C)c(=O)n(C)c1=O [Example 22, Ethyl 6-(4-bromo-2-chlorophenylamino)-1,3-dimethyl-2,4-dioxo-1,2,3,4-tetrahydropyrimidine-5-carboxylate]
≤ 0.5 | Cn1c(Nc2ccc(I)cc2Cl)c(C(=O)NOCCO)c(=O)n(C)c1=O [Example 25, 6-(2-chloro-4-iodophenylamino)-N-(2-hydroxyethoxy)-1,3-dimethyl-2,4-dioxo-1,2,3,4-tetrahydropyrimidine-5-carboxamide]
≤ 0.5 | Cn1c(Nc2ccc(I)cc2Cl)c(C(=O)NOC[C@H](O)CO)c(=O)n(C)c1=O [Example 27, (R)-6-(2-chloro-4-iodophenylamino)-N-(2,3-dihydroxypropoxy)-1,3-dimethyl-2,4-dioxo-1,2,3,4-tetrahydropyrimidine-5-carboxamide]
≤ 0.5 | Cn1c(Nc2ccc(I)cc2F)c(C(=O)NOC(CO)CO)c(=O)n(C)c1=O [Example 28, N-(1,3-dihydroxypropan-2-yloxy)-6-(2-fluoro-4-iodophenylamino)-1,3-dimethyl-2,4-dioxo-1,2,3,4-tetrahydropyrimidine-5-carboxamide]
0.501 to 2.5 | Cn1c(Nc2ccc(I)cc2F)c(C(=O)NOCCCO)c(=O)n(C)c1=O [Example 29, 6-(2-Fluoro-4-iodophenylamino)-N-(3-hydroxypropoxy)-1,3-dimethyl-2,4-dioxo-1,2,3,4-tetrahydropyrimidine-5-carboxamide]
> 25 | Cc1cc(C(=O)c2c(Nc3ccc(I)cc3F)n(C)c(=O)n(C)c2=O)no1 [Example 30, 6-(2-Fluoro-4-iodophenylamino)-1,3-dimethyl-5-(5-methylisoxazole-3-carbonyl)pyrimidine-2,4(1H,3H)-dione]
> 25 | Cn1c(Nc2ccc(I)cc2F)c(C(=O)C(=O)O)c(=O)n(C)c1=O [Example 31, 2-(6-(2-Fluoro-4-iodophenylamino)-1,3-dimethyl-2,4-dioxo-1,2,3,4-tetrahydropyrimidin-5-yl)-2-oxoacetic acid]
2.5 to 25 | Cn1c(Nc2ccc(I)cc2F)c(C(=O)N2CC(O)CO2)c(=O)n(C)c1=O (stereo not shown) [Example 32, 6-(2-Fluoro-4-iodophenylamino)-5-(4-hydroxyisoxazolidine-2-carbonyl)-1,3-dimethylpyrimidine-2,4(1H,3H)-dione]
2.5 to 25 | Cn1c(Nc2ccc(I)cc2F)c(C(=O)NCCN2CCCC2)c(=O)n(C)c1=O [Example 33, 6-(2-Fluoro-4-iodophenylamino)-1,3-dimethyl-2,4-dioxo-N-(2-(pyrrolidin-1-yl)ethyl)-1,2,3,4-tetrahydropyrimidine-5-carboxamide]

Structure (SMILES) | IC50 [µM]
Cn1c(Nc2ccc(I)cc2F)c(C(=O)NOC[C@H](O)CO)c(=O)n(C)c1=O [Example 2, (R)-N-(2,3-dihydroxypropoxy)-6-(2-fluoro-4-iodophenylamino)-1,3-dimethyl-2,4-dioxo-1,2,3,4-tetrahydropyrimidine-5-carboxamide] | ≤ 0.5
CCOC(=O)c1c(Nc2ccc(I)cc2F)n(C)c(=O)n(C)c1=O [Example 20, Ethyl 6-(2-fluoro-4-iodophenylamino)-1,3-dimethyl-2,4-dioxo-1,2,3,4-tetrahydropyrimidine-5-carboxylate] | > 25
CCOC(=O)c1c(Nc2ccccc2F)n(C)c(=O)n(C)c1=O [Example 21, Ethyl 6-(2-fluorophenylamino)-1,3-dimethyl-2,4-dioxo-1,2,3,4-tetrahydropyrimidine-5-carboxylate] | > 25
Cn1c(Nc2ccc(I)cc2F)c(C(=O)NOCC[C@H](O)CO)c(=O)n(C)c1=O [Example 34, (S)-N-(3,4-Dihydroxybutoxy)-6-(2-fluoro-4-iodophenylamino)-1,3-dimethyl-2,4-dioxo-1,2,3,4-tetrahydropyrimidine-5-carboxamide] | 2.5 to 25
